Test results: PubChem BioAssay (NCI)
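At the GI50, growth is halved. TGI marks complete inhibition of growth.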

Legend:
Test in all cases: NCI-60 cell line screen, 384-well format
NCI-H322M lung = system: NCI-H322M lung
NCI-H522 lung = system: NCI-H522 lung
U251 glioblastoma = system: U251 glioblastoma
SK-MEL-28 melanoma = system: SK-MEL-28 melanoma
BT-549 breast = system: BT-549 breast
SF-295 CNS = system: SF-295 CNS
OVCAR-4 ovarian = system: OVCAR-4 ovarian
SNB-75 CNS = system: SNB-75 CNS
PC-3 prostate = system: PC-3 prostate
OVCAR-8 ovarian = system: OVCAR-8 ovarian
HS 578T breast = system: HS 578T breast
MDA-MB-231 breast = system: MDA-MB-231 breast
SW-620 colon = system: SW-620 colon
RPMI-8226 leukemia = system: RPMI-8226 leukemia
MDA-MB-468 breast = system: MDA-MB-468 breast
CAKI-1 renal = system: CAKI-1 renal
SF-268 CNS = system: SF-268 CNS
T-47D breast = system: T-47D breast
HOP-92 NSCLC = system: HOP-92 NSCLC
MALME-3M melanoma = system: MALME-3M melanoma
786-0 renal = system: 786-0 renal
SN12C renal = system: SN12C renal
HCT-116 colon = system: HCT-116 colon
SR leukemia = system: SR leukemia
COLO 205 colon = system: COLO 205 colon
A549 NSCLC = system: A549 NSCLC
NCI-H23 lung = system: NCI-H23 lung
ACHN renal = system: ACHN renal
RXF 393 renal = system: RXF 393 renal
OVCAR-5 ovarian = system: OVCAR-5 ovarian
EKVX NSCLC = system: EKVX NSCLC
TK-10 renal = system: TK-10 renal
NCI-H460 NSCLC = system: NCI-H460 NSCLC
HCT-15 colon = system: HCT-15 colon
MCF7 breast = system: MCF7 breast
SNB-19 CNS = system: SNB-19 CNS
HT29 colon = system: HT29 colon
HOP-62 NSCLC = system: HOP-62 NSCLC
SK-OV-3 ovarian = system: SK-OV-3 ovarian
M14 melanoma = system: M14 melanoma
HL-60(TB) leukemia = system: HL-60(TB) leukemia
MOLT-4 leukemia = system: MOLT-4 leukemia
SF-539 CNS = system: SF-539 CNS
NCI-H226 lung = system: NCI-H226 lung
IGROV1 ovarian = system: IGROV1 ovarian
A498 renal = system: A498 renal
KM12 colon = system: KM12 colon
UO-31 renal = system: UO-31 renal
NCI/ADR-RES ovarian = system: NCI/ADR-RES ovarian
LOX IMVI melanoma = system: LOX IMVI melanoma
OVCAR-3 ovarian = system: OVCAR-3 ovarian
UACC-257 melanoma = system: UACC-257 melanoma
DU-145 prostate = system: DU-145 prostate
SK-MEL-5 melanoma = system: SK-MEL-5 melanoma
MDA-MB-435 melanoma = system: MDA-MB-435 melanoma
HCC-2998 colon = system: HCC-2998 colon
UACC-62 melanoma = system: UACC-62 melanoma

Work on Cc1ccc(-c2cc(C(F)(F)F)nn2-c2ccc(S(N)(=O)=O)cc2)cc1 yielded a GI50 (NCI-H322M lung) of 15.9 µM, a TGI (NCI-H322M lung) of 29.4 µM and a GI50 (NCI-H522 lung) of 13.6 µM. For the same compound, the TGI (NCI-H522 lung) was 26.5 µM, the GI50 (U251 glioblastoma) was 16 µM and the TGI (U251 glioblastoma) was 29.5 µM. The GI50 (SK-MEL-28 melanoma) was 17.6 µM, the TGI (SK-MEL-28 melanoma) was 31.4 µM and the GI50 (BT-549 breast) was 15.9 µM. It also gave a TGI (BT-549 breast) of 29.3 µM, a GI50 (SF-295 CNS) of 16.5 µM and a TGI (SF-295 CNS) of 30.1 µM. It also gave a GI50 (OVCAR-4 ovarian) of 11.8 µM, a TGI (OVCAR-4 ovarian) of 24.1 µM and a GI50 (SNB-75 CNS) of 10.8 µM. It also gave a TGI (SNB-75 CNS) of 23 µM, a GI50 (PC-3 prostate) of 14.6 µM and a TGI (PC-3 prostate) of 27.8 µM. It also gave a GI50 (OVCAR-8 ovarian) of 15.6 µM, a TGI (OVCAR-8 ovarian) of 28.9 µM and a GI50 (HS 578T breast) of 14.5 µM. It also gave a TGI (HS 578T breast) of 27.7 µM, a GI50 (MDA-MB-231 breast) of 15.7 µM and a TGI (MDA-MB-231 breast) of 29.2 µM. The GI50 (SW-620 colon) was 17.1 µM, the TGI (SW-620 colon) was 30.9 µM and the GI50 (RPMI-8226 leukemia) was 12.1 µM. The TGI (RPMI-8226 leukemia) was 24.5 µM, the GI50 (MDA-MB-468 breast) was 13.6 µM and the TGI (MDA-MB-468 breast) was 26.5 µM. The GI50 (CAKI-1 renal) was 16.8 µM, the TGI (CAKI-1 renal) was 30.5 µM and the GI50 (SF-268 CNS) was 16.4 µM. The TGI (SF-268 CNS) was 30 µM, the GI50 (T-47D breast) was 11.4 µM and the TGI (T-47D breast) was 23.7 µM. For the same compound, the GI50 (HOP-92 NSCLC) was 16 µM, the TGI (HOP-92 NSCLC) was 29.4 µM and the GI50 (MALME-3M melanoma) was 16.2 µM. It also gave a TGI (MALME-3M melanoma) of 29.8 µM, a GI50 (786-0 renal) of 14.1 µM and a TGI (786-0 renal) of 27.4 µM. The GI50 (SN12C renal) was 15.2 µM, the TGI (SN12C renal) was 28.6 µM and the GI50 (HCT-116 colon) was 15.2 µM. For the same compound, the TGI (HCT-116 colon) was 28.5 µM, the GI50 (SR leukemia) was 29 µM and the TGI (SR leukemia) was 43.8 µM. For the same compound, the GI50 (COLO 205 colon) was 16.2 µM, the TGI (COLO 205 colon) was 29.7 µM and the GI50 (A549 NSCLC) was 14.4 µM. For the same compound, the TGI (A549 NSCLC) was 27.5 µM, the GI50 (NCI-H23 lung) was 15.6 µM and the TGI (NCI-H23 lung) was 29 µM. It also gave a GI50 (ACHN renal) of 15.1 µM, a TGI (ACHN renal) of 28.3 µM and a GI50 (RXF 393 renal) of 14.4 µM. It also gave a TGI (RXF 393 renal) of 27.4 µM, a GI50 (OVCAR-5 ovarian) of 16.2 µM and a TGI (OVCAR-5 ovarian) of 29.7 µM. It also gave a GI50 (EKVX NSCLC) of 14.2 µM, a TGI (EKVX NSCLC) of 27.2 µM and a GI50 (TK-10 renal) of 16.7 µM. The TGI (TK-10 renal) was 30.4 µM, the GI50 (NCI-H460 NSCLC) was 15.3 µM and the TGI (NCI-H460 NSCLC) was 28.7 µM. The GI50 (HCT-15 colon) was 14.7 µM, the TGI (HCT-15 colon) was 27.9 µM and the GI50 (MCF7 breast) was 14.2 µM. The TGI (MCF7 breast) was 27.2 µM, the GI50 (SNB-19 CNS) was 16.6 µM and the TGI (SNB-19 CNS) was 30.4 µM. For the same compound, the GI50 (HT29 colon) was 16.1 µM, the TGI (HT29 colon) was 29.6 µM and the GI50 (HOP-62 NSCLC) was 15.3 µM. For the same compound, the TGI (HOP-62 NSCLC) was 28.6 µM, the GI50 (SK-OV-3 ovarian) was 17.1 µM and the TGI (SK-OV-3 ovarian) was 30.9 µM. For the same compound, the GI50 (M14 melanoma) was 19 µM, the TGI (M14 melanoma) was 33.1 µM and the GI50 (HL-60(TB) leukemia) was 20.5 µM. It also gave a TGI (HL-60(TB) leukemia) of 34.8 µM, a GI50 (MOLT-4 leukemia) of 9.05 µM and a TGI (MOLT-4 leukemia) of 21.3 µM. For the same compound, the GI50 (SF-539 CNS) was 16.7 µM, the TGI (SF-539 CNS) was 30.4 µM and the GI50 (NCI-H226 lung) was 13 µM. The TGI (NCI-H226 lung) was 25.6 µM, the GI50 (IGROV1 ovarian) was 16.3 µM and the TGI (IGROV1 ovarian) was 29.8 µM. For the same compound, the GI50 (A498 renal) was 15.6 µM, the TGI (A498 renal) was 28.9 µM and the GI50 (KM12 colon) was 15.8 µM. For the same compound, the TGI (KM12 colon) was 29.2 µM, the GI50 (UO-31 renal) was 14.7 µM and the TGI (UO-31 renal) was 27.9 µM. It also gave a GI50 (NCI/ADR-RES ovarian) of 15.7 µM, a TGI (NCI/ADR-RES ovarian) of 29.1 µM and a GI50 (LOX IMVI melanoma) of 17.6 µM. The TGI (LOX IMVI melanoma) was 31.4 µM, the GI50 (OVCAR-3 ovarian) was 14.3 µM and the TGI (OVCAR-3 ovarian) was 27.4 µM. It also gave a GI50 (UACC-257 melanoma) of 16.6 µM, a TGI (UACC-257 melanoma) of 30.3 µM and a GI50 (DU-145 prostate) of 15 µM. For the same compound, the TGI (DU-145 prostate) was 28.2 µM, the GI50 (SK-MEL-5 melanoma) was 13.8 µM and the TGI (SK-MEL-5 melanoma) was 26.7 µM. The GI50 (MDA-MB-435 melanoma) was 19.3 µM, the TGI (MDA-MB-435 melanoma) was 33.4 µM and the GI50 (HCC-2998 colon) was 14.9 µM. The TGI (HCC-2998 colon) was 28.1 µM, the GI50 (UACC-62 melanoma) was 18.4 µM and the TGI (UACC-62 melanoma) was 32.4 µM.
